Results from PubChem BioAssay AID330 (DTP/NCI, 2004).
Toxic doses and inconclusive results are not listed.

System: P388 leukemia ip, CD2F1 mice, survival T/C
Experiment: NCI In Vivo Anticancer Drug Screen. Data for tumor model P388 Leukemia (intraperitoneal) in CD2F1 (CDF1) mice
Conditions: endpoint: median survival time, higher = longer survival
How it was run: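 Mice carrying the transplanted tumor received test compound or vehicle. Survival was recorded in each group, and the value is the treated-group measurement divided by that of the vehicle-treated control group.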

[1] = dose: 50.0 mg/kg/injection, schedule: Q01DX009 (ip), vehicle: saline
[2] = dose: 100.0 mg/kg/injection, schedule: Q01DX009 (ip), vehicle: saline
[3] = dose: 50.0 mg/kg/injection, schedule: Q01DX009 (ip), vehicle: saline with Tween-80
[4] = dose: 100.0 mg/kg/injection, schedule: Q01DX009 (ip), vehicle: saline with Tween-80
[5] = dose: 200.0 mg/kg/injection, schedule: Q01DX009 (ip), vehicle: saline with Tween-80

CCCCC(=O)N(c1ccc(Nc2c3ccccc3nc3cc([N+](=O)[O-])ccc23)cc1)S(C)(=O)=O
T/C (dose: 0.07 mg/kg/injection, schedule: Q01DX009 (ip), vehicle: saline with Tween-80): 107 % of control
T/C (dose: 0.1 mg/kg/injection, schedule: Q01DX009 (ip), vehicle: saline with Tween-80): 107 % of control
T/C (dose: 0.15 mg/kg/injection, schedule: Q01DX009 (ip), vehicle: saline with Tween-80): 105 % of control
T/C (dose: 0.23 mg/kg/injection, schedule: Q01DX009 (ip), vehicle: saline with Tween-80): 123 % of control
T/C (dose: 0.44 mg/kg/injection, schedule: Q04DX003 (ip), vehicle: saline with Tween-80): 112 % of control
T/C (dose: 0.66 mg/kg/injection, schedule: Q04DX003 (ip), vehicle: saline with Tween-80): 113 % of control
T/C (dose: 1.0 mg/kg/injection, schedule: Q04DX003 (ip), vehicle: saline with Tween-80): 119 % of control
T/C (dose: 2.5 mg/kg/injection, schedule: Q01DX009 (ip), vehicle: saline with Tween-80): 188 % of control
T/C (dose: 4.4 mg/kg/injection, schedule: Q04DX003 (ip), vehicle: saline with Tween-80): 154 % of control
T/C (dose: 5.0 mg/kg/injection, schedule: Q01DX009 (ip), vehicle: saline with Tween-80): 227 % of control
T/C (dose: 6.6 mg/kg/injection, schedule: Q04DX003 (ip), vehicle: saline with Tween-80): 159 % of control
T/C (dose: 9.38 mg/kg/injection, schedule: Q01DX009 (ip), vehicle: saline with Tween-80): 227 % of control
T/C (dose: 10.0 mg/kg/injection, schedule: Q01DX009 (ip), vehicle: saline with Tween-80): 254 % of control
T/C (dose: 10.0 mg/kg/injection, schedule: Q04DX003 (ip), vehicle: saline with Tween-80): 168 % of control
T/C (dose: 10.8 mg/kg/injection, schedule: Q04DX003 (ip), vehicle: water): 153 % of control
T/C (dose: 15.0 mg/kg/injection, schedule: Q04DX003 (ip), vehicle: saline with Tween-80): 186 % of control
T/C (dose: 18.0 mg/kg/injection, schedule: Q04DX003 (ip), vehicle: water): 162 % of control
T/C (dose: 30.0 mg/kg/injection, schedule: Q04DX003 (ip), vehicle: water): 180 % of control
T/C (dose: 50.0 mg/kg/injection, schedule: Q04DX003 (ip), vehicle: water): 171 % of control

Cc1cc2c(cc1Cl)ncn2C
T/C [1]: 96 % of control
T/C [2]: 112 % of control
T/C (dose: 200.0 mg/kg/injection, schedule: Q01DX009 (ip), vehicle: saline): 118 % of control

COc1ccc(N2CCN(CC(O)COc3cc4c(c5c3CCCC5)CCCC4)CC2)cc1 (stereo unspecified)
T/C (dose: 100.0 mg/kg/injection, schedule: Q04DX003 (ip), vehicle: Klucel (hydroxypropylcellulose) (HPC)): 104 % of control
T/C (dose: 200.0 mg/kg/injection, schedule: Q04DX003 (ip), vehicle: Klucel (hydroxypropylcellulose) (HPC)): 94 % of control
T/C (dose: 400.0 mg/kg/injection, schedule: Q04DX003 (ip), vehicle: Klucel (hydroxypropylcellulose) (HPC)): 108 % of control

COC(=O)c1[nH]c(=O)c(C#N)c(C(=O)OC)c1C(=O)/C=C/c1ccccc1
T/C (dose: 60.0 mg/kg/injection, schedule: Q01DX005 (ip), vehicle: saline with Tween-80): 100 % of control
T/C (dose: 120.0 mg/kg/injection, schedule: Q01DX005 (ip), vehicle: saline with Tween-80): 96 % of control
T/C (dose: 240.0 mg/kg/injection, schedule: Q01DX005 (ip), vehicle: saline with Tween-80): 90 % of control

c1cc2c3c(cccc3c1)NC(c1ccc3c(c1)OCO3)N2
T/C (dose: 50.0 mg/kg/injection, schedule: Q01DX005 (ip), vehicle: Klucel (hydroxypropylcellulose) (HPC)): 100 % of control
T/C (dose: 100.0 mg/kg/injection, schedule: Q01DX005 (ip), vehicle: Klucel (hydroxypropylcellulose) (HPC)): 100 % of control
T/C (dose: 200.0 mg/kg/injection, schedule: Q01DX005 (ip), vehicle: Klucel (hydroxypropylcellulose) (HPC)): 95 % of control

Nc1ccccc1Nc1ccncc1
T/C (dose: 25.0 mg/kg/injection, schedule: Q01DX009 (ip), vehicle: suspension in saline): 97 % of control
T/C (dose: 50.0 mg/kg/injection, schedule: Q01DX009 (ip), vehicle: suspension in saline): 100 % of control
T/C (dose: 100.0 mg/kg/injection, schedule: Q01DX009 (ip), vehicle: suspension in saline): 97 % of control

CS(=O)(=O)c1cc(=O)[nH]c(=O)[nH]1
T/C (dose: 25.0 mg/kg/injection, schedule: Q01DX009 (ip), vehicle: saline with Tween-80): 90 % of control
T/C [3]: 95 % of control
T/C [4]: 100 % of control
T/C [5]: 95 % of control

C[n+]1ccn(Cc2ccc([N+](=O)[O-])cc2)c1
T/C [1]: 115 % of control
T/C [2]: 102 % of control

CC(=O)OC1CC(=O)OC(C)(C)C2CC(=O)C3(C)C(CCC4(C)C(c5ccoc5)OC(=O)C5OC543)C12C (stereo unspecified)
T/C [3]: 99 % of control
T/C [4]: 97 % of control
T/C [5]: 97 % of control

Nc1n[nH][nH]c1=O
T/C (dose: 60.0 mg/kg/injection, schedule: Q01DX005 (ip), vehicle: saline): 100 % of control
T/C (dose: 120.0 mg/kg/injection, schedule: Q01DX005 (ip), vehicle: saline): 116 % of control
T/C (dose: 240.0 mg/kg/injection, schedule: Q01DX005 (ip), vehicle: saline): 100 % of control
